Data: patent US7659277B2, “Ubiquitin ligase inhibitors and methods related thereto” (Proteologies, Ltd., priority 2003, dated 2010)

Experiments:
Format in all cases: biochemical
[1] = target: c-cbl (Homo sapiens, UniProt P22681); assay: Selectivity (% A in 1 μM), ubiquitin ligase activity of c-cbl; details: % activity at 1 μM compound; control is related to 100% activity; HTS protocol
[2] = test system: E2 protein; details: % activity at 1 μM compound; control is related to 100% activity; HTS protocol
[3] = target: T1, POSH (Homo sapiens, UniProt Q7Z6J0); assay: Selectivity (% A in 1 μM), ubiquitin ligase activity of POSH; details: % activity at 1 μM compound; control is related to 100% activity; HTS protocol; read-out: Selectivity (% A* in 1 μM) POSH
T1 construct: GST-POSH lot NB81/p.118 3.6 mg/ml; fused on or other part: GST tag, used for detection with anti-GST XL665
T1 sequence (Q7Z6J0 1-269 limits assumed): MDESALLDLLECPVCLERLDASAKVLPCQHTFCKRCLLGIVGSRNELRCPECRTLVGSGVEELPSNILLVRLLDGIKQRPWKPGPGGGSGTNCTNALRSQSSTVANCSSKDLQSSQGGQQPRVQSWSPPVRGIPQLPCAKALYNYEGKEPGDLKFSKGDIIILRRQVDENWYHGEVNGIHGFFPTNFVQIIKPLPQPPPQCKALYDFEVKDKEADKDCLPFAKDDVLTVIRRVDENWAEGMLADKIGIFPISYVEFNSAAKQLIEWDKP
Description: Experimental Protocols: 1. HTS Screening Assay Procedure • Microplates 10109D to 10114D compounds at 1 mM. • (Controls in column 1). • All compounds were perchase from ChemBridge corporation: ChemBridge corporation 16981 Via Tazon, Suite G San Diego, Calif. 92127 a. Microplates Labeling • Put labels to 6 PS U-bottom clear microplate. • Put labels to 18 black microplates (triplicats). b. Microplates Preparation • Put 100 μl GST-POSH at 33 nM in wells of the clear PS U-bottom microplates (exept wells A1-D1). • Negative control: place 100 μl dH2O in wells A1-D1. • (Positive control: place 100 μl GST-POSH at 33 nM in wells E1-H1). • Put 8 μl enzymes solution ×4 to black microplates (column 1 to 11). c. Incubation of E3 with Compounds • Transfer 5 μl of compounds (at 1 mM) to the microplates containing 100 μl GST-POSH. • Add 5 μl of DMSO to controls column 1. • Incubation 30 minutes at RT. d. […] 2. […] Microplates Labeling • Put labels to 4 clear PP clear microplate (18.2 μM, 9.1 uM, 1.82 uM, 910 nM,). • Put labels to 5 clear PS U-bottom clear microplate 4.44 μM, 909, 444, 91 and 44 nM) • Put labels to 15 black microplates (triplicates). f. Original Microplate Dilutions • Put DMSO 40 μl to (18.2 μM, 1.82 uM plates) and 20 ul to (9.1 uM, 910 nM plates. • Mix by pipetation the original microplate (3× up and down 45 μl). • Transfer 10 μl of compounds from the original microplate (at 91 μM) to the next microplate (=18.2 μM) on splitting apparatus. • Mix by pipetation the 18.2 uM microplate (3× up and down 45 μl). • Transfer 20 μl of compounds from the 18.2 uM microplate to the next microplate (=9.1 μM) on splitting apparatus. • Mix by pipetation the 9.1 uM microplate (3× up and down 45 μl). • Transfer 10 μl of compounds from the 9.1 uM microplate to the next microplate (=1.82 μM) on splitting apparatus. • Mix by pipetation the 1.82 uM microplate (3× up and down 45 μl). • Transfer 20 μl of compounds from the 1.82 uM microplate to the next microplate (=910 nM) on splitting apparatus • Mix by pipetation. g. Microplates Preparation • Put 123 μl GST-POSH at 33 nM in wells of the 5 clear PS U-bottom clear microplates. • Positive control: place 123 μl GST-POSH at 33 nM in well A12-h12 13 μl DMSO. • Negative control: place 123 μl dH2O in well B1 and 13 μl DMSO. • Put 8 μl enzymes solution ×4 to 15 black microplates. • Controls: put 8 μl enzymes solution ×4 to wells A1 to F1. h. Incubation of POSH with Compounds • Take 7 μl of compounds at original plate (91 μM) and put into the 4.44 μM labeled microplate containing 123 μl GST-POSH, on splitting apparatus. • Mix by pipetation (3× up and down 115 μl), note time. • Take 7 μl of compounds at 18.2 μM and put into the 910 nM labeled microplate containing 123 μl GST-POSH, on splitting apparatus. • Mix by pipetation (3× up and down 115 μl), note time. • Take 7 μl of compounds at 9.1 μM and put into the 444 nM labeled microplate containing 123 μl GST-POSH, on splitting apparatus. • Mix by pipetation (3× up and down 115 μl), note time. • Take 7 μl of compounds at […] and put into the 91 nM labeled microplate containing 123 μl GST-POSH, on splitting apparatus. • Mix by pipetation (3× up and down 115 μl), note time. • Take 7 μl of compounds at 91.0 nM and put into the 44 nM labeled microplate containing 123 μl GST-POSH, on splitting apparatus. • Mix by pipetation (3× up and down 115 μl), note time. • Incubation 30 minutes at RT. i.

Structure (SMILES)	remaining activity at 1 µM [1] [%]	Selectivity (% A* in 1 μM) E2 [2] [%]	remaining activity at 1 µM [3] [%]
CC(=O)Nc1ccc(-c2cc3ccccn3c2)cc1 [Compound 78]	151	43	22
C=CCN1C(=O)NC(=O)/C(=C/c2ccc(F)cc2)C1=O [Compound 12]	–	–	54
O=C1C(=Cc2ccco2)C(=O)N(c2ccccc2)C(=S)N1c1ccccc1 [Compound 13]	–	–	7
O=C1NC(=S)N(c2ccccc2)C(=O)/C1=C\c1c(Cl)cccc1Cl [Compound 6]	–	–	14
Cc1cc(C)c(O)c(/N=C/c2c(O)ccc3ccccc23)c1 [Compound 65]	101	65	8
COC(=O)c1ccc(N2C(=O)c3cccc(N)c3C2=O)cc1 [Compound 21]	91	75	83
Cc1cc(/N=C/c2c(O)ccc3ccccc23)no1 [Compound 111]	98	49	17
Oc1c(Cl)cc(Cl)cc1/C=N/c1ccc(-c2nc3ccccc3[nH]2)cc1 [Compound 63]	95	109	30
COc1cc(/C=C2\SC(=O)NC2=O)ccc1OCc1ccc(Cl)cc1Cl [Compound 34]	135	93	23
O=C1/C(=C\c2ccc(Cl)c([N+](=O)[O-])c2)Sc2ccccc21 [Compound 50]	155	103	39
Oc1c(Br)cc(Cl)cc1/C=N/c1ccccn1 [Compound 64]	118	117	63
Oc1ccc2ccccc2c1/C=N/c1ncc(Br)cc1Br [Compound 66]	107	117	53
O=C1NC(=O)/C(=C\c2ccc(-c3ccc(F)cc3)o2)S1 [Compound 108]	–	–	42
O=c1/c(=C/c2cccc([N+](=O)[O-])c2O)sc2nc3ccccc3n12 [Compound 51]	104	113	51
O=C1CC(NNc2ccccc2)C(=O)N1c1cccc(Cl)c1 (stereo not drawn) [Compound 22]	64	91	26
CCOC(=O)c1c(/N=C/c2cc(Br)ccc2O)sc2c1CCCC2 [Compound 68]	91	57	72
COc1ccc(CNc2cccc(N(C)C)c2)cc1 [Compound 106]	112	88	27
O=[N+]([O-])c1ccc(Cl)cc1CN1CCN(CCO)CC1 [Compound 82]	77	47	60
Oc1c(Br)cc(Br)cc1/C=N/c1nc2ccccc2s1 [Compound 62]	134	94	37
O=C1N=C(c2ccccc2)S/C1=C/c1ccc2ccccc2c1 [Compound 41]	141	82	17

Structure (SMILES)	remaining activity at 1 µM [1] [%]	Selectivity (% A* in 1 μM) E2 [2] [%]	remaining activity at 1 µM [3] [%]
Cc1cc(I)ccc1NCn1nnc2ccccc21 [Compound 105]	117	93	28
O=c1oc2cc(O)ccc2cc1-c1csc(-c2ccc(Cl)cc2)n1 [Compound 40]	95	117	24
Cc1ccc(/C=N/c2ccc(C(N)=O)cc2)o1 [Compound 73]	90	64	16
CC(C)Oc1ccc(/C=C2/SC(=S)NC2=O)cc1 [Compound 26]	85	61	69
COc1ccc(/C=C/C(=O)C2C(=O)CCC2=O)cc1OC [Compound 113]	93	66	74
O=C1N=C(c2ccccc2)S/C1=C/c1ccc(-c2cccc([N+](=O)[O-])c2)o1 [Compound 36]	86	82	6
Cc1ccc(/C=N/c2ccc(Cl)cc2)o1 [Compound 74]	110	96	17
O=C1/C(=C\c2cccc([N+](=O)[O-])c2)Sc2ccccc21 [Compound 52]	124	63	80
COc1ccccc1N1C(=O)NC(=O)/C(=C\C=C\c2ccccc2)C1=O [Compound 10]	–	–	15
COc1ccc(CC(C)NCc2ccccc2Cl)cc1 (stereo not drawn) [Compound 107]	–	–	68
COc1cc(C=C2C(=O)N(C)C(=S)N(C)C2=O)ccc1O [Compound 9]	–	–	91
COc1ccccc1/C=C1\N=C(c2ccccc2Cl)OC1=O [Compound 49]	127	43	77
O=C1C=CC(=O)N1c1cc(Cl)cc(Cl)c1 [Compound 23]	102	112	9
Oc1c(Br)cc(Br)cc1/C=N/c1cccc2nsnc12 [Compound 112]	117	84	27
Cc1ccc2nc(-c3ccc(/N=C/c4ccc([N+](=O)[O-])s4)cc3)sc2c1 [Compound 72]	95	77	39
COc1ccc(N2C(=O)NC(=O)/C(=C\c3ccc(Cl)cc3)C2=O)cc1 [Compound 7]	–	–	108
O=C1NC(=O)N(c2ccc(Br)cc2)C(=O)/C1=C/c1ccc(O)cc1 [Compound 5]	–	–	13
COc1cc(N/C=C2/C(=O)NC(=S)N(c3ccc(F)cc3)C2=O)cc(OC)c1 [Compound 17]	–	–	71
COc1cc(N/C=C2/C(=O)NC(=S)N(c3cccc(C)c3)C2=O)cc(OC)c1 [Compound 16]	–	–	51
COc1ccc(/C=C2\C(=O)NC(=S)N(c3ccccc3)C2=O)cc1 [Compound 11]	–	–	21
